Results from patent US20110280813A1, “NEURAMINIDASE INHIBITORS AND USES THEREOF” (priority 2008, published 2011).
Entries after “also recorded” stand apart in the source; their conditions may differ. Read-outs that look alike come from different tables or passages of the source.

Tests used:
[1] = target: T1, P. aeruginosa neuraminidase (NanPs) (Pseudomonas aeruginosa, UniProt G3XCV3); conditions: read-out: concentration for 50% inhibition of the P. aeruginosa neuraminidase; from reference A37; cited from earlier work
[2] = target: T2, S. pneumoniae neuraminidase (NanA) (Streptococcus pneumoniae, UniProt P62575); assay: Neuraminidase assay with fluorogenic substrate MNN, NanA; assay type: biochemical
T2 construct: residues 116-1035 of S. pneumoniae D39 sialidase A precursor (NanA); made in house; host or cells: E. coli BL21(DE3), pET28a
Experimental: (§1) Neuraminidase assay. Neuraminidase activity of NanA was detected using the fluorogenic substrate 2′-(4-methylumbelliferyl)-α-D-N-acetylneuraminic acid (MNN, Sigma). Reactions contained 1.5 mM MNN, 1 nM of NanA in 2.5 mM sodium phosphate buffer (pH 5). Reactions were allowed to incubate for 2 h at 37° C. before fluorescence intensity was measured at excitation and emission wavelengths of 360 nm and 465 nm in a Tecan microplate reader (Männedorf, Switzerland). NanPs was assayed as above with 1 mM of enzyme in 7.5 mM sodium chloride and 4 mM calcium chloride. Compounds were screened at a concentration of 100 μM before dose-dependence was established. Compounds were obtained from a variety of sources (Otava, Kyiv, Ukraine; Interbioscreen, Moscow, Russia; Chembridge San Diego, USA; Maybridge, Cornwell, UK; Sigma, St Louis, USA; Princeton, Princeton, USA; Lifechem, Burlington, Canada; Enamine, Kiev, Ukraine). Neuraminidase assays with oseltamivir were performed using the hydrolyzed version of the compound. Divalent cations were supplied in the form of calcium, magnesium, ferric and copper chloride. All neuraminidase assays were performed at least in triplicate.
as §1, with “assay. NanA was purified as previously described (B19).” for “assay.”, “Switzerland).” for “Switzerland). NanPs was assayed as above with 1 mM of enzyme in 7.5 mM sodium chloride and 4 mM calcium chloride. Compounds were screened at a concentration of 100 μM before dose-dependence was established.”, “Kiev,” for “Kyiv,”, “compound. Briefly, a mixture of oseltamivir (300 mg) in methanol (10 ml) was added to 5N NaOH (3 ml). The mixture was stirred overnight and evaporated under reduced pressure. The residue was dissolved in 10 ml H2O and the washed with 5 ml of ethyl acetate. The aqueous solution was acidified with 5N HCl to pH=2-3. Evaporation of water under reduced pressure gave the hydrolyzed product. […]” for “compound.”

[3] = test system: S. pneumoniae wild-type D39 biofilm; assay: Biofilm formation after epithelial cell interaction (crystal violet microtitre assay); assay type: cell-based, Streptococcus pneumoniae
Experimental: (§2) Biofilm assay. Bacterial strains were grown to mid-log phase before being diluted 1:100 in TS broth and catalase. 100 μl of diluted culture was added in triplicate to 96-well flat bottom tissue culture treated plates (Falcon) and left for 18-24 h at 37° C. with 5% CO2. Plates were read at 600 nm to determine levels of growth before being washed in water. Adherent biofilm-forming cells were then stained with 125 μL of 1% crystal violet for 15 min before two further washes in water and allowed to dry. Bound crystal violet was then suspended in 200 μL of ethanol, shaken for 15 min and read at 540 nm.
(§3) Biofilm formation after epithelial cell interaction. Bacterial strains were grown and inoculated onto 1HAEo^− cells as per adherence assay. After the initial PBS washes fresh MEM media was applied before a further 1 h incubation. This removal and addition of fresh media was repeated a further four times before detachment of adherent bacteria using TrypLE Express (Gibco). The detached bacteria were then diluted 1:100 in TS broth and catalase and assayed as per the biofilm assay. Samples were repeated four times, each time in sextuplicate using epithelial cells without bacteria as a negative control.
as §3, with “control. […] Fluorescence microscopy was performed using a Zeiss Observer Z1 inverted fluorescence microscope with ApoTome (Zeiss) for optical sectioning and AxioVision software (v 4.6.2.0, Zeiss). […]” for “control.”

[4] = target: T1, P. aeruginosa neuraminidase (NanPs); assay: Neuraminidase assay with fluorogenic substrate MNN, NanPs; assay type: biochemical
Experimental: as §1

[5] = test system: S. pneumoniae planktonic cells; assay: Growth of planktonic cells (600 nm reading in biofilm assay); assay type: cell-based, Streptococcus pneumoniae
Experimental: as §2
as §3, with “control. […] Fluorescence microscopy was performed using a Zeiss Observer Z1 inverted fluorescence microscope with ApoTome (Zeiss) for optical sectioning and AxioVision software (v 4.6.2.0, Zeiss). […]” for “control.”

T2 sequence (P62575 116-1035): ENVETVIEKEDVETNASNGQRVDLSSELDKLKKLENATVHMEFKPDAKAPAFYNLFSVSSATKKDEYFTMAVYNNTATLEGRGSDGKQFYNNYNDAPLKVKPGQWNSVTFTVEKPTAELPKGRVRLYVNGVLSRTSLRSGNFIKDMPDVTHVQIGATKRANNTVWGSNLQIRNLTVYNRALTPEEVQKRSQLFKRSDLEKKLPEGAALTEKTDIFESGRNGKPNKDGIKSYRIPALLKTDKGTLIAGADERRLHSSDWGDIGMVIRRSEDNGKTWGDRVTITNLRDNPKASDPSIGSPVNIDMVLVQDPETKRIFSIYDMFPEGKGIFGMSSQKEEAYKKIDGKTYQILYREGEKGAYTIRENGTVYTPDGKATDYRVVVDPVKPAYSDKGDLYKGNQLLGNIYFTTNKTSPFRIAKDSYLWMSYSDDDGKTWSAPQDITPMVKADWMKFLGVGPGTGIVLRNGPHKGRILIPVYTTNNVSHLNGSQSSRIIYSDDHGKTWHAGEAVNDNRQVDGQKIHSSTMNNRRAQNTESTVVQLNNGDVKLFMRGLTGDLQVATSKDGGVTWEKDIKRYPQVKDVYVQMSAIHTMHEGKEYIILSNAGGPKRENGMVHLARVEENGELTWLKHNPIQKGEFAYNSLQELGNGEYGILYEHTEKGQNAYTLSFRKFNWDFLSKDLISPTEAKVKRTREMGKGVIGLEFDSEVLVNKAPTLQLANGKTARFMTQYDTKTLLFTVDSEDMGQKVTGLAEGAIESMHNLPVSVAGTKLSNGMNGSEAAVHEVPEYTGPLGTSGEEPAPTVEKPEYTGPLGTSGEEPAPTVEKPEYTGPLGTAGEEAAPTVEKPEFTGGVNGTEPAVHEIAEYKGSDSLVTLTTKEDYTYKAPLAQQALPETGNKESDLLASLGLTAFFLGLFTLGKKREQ
T1 sequence (G3XCV3 entry or part of it): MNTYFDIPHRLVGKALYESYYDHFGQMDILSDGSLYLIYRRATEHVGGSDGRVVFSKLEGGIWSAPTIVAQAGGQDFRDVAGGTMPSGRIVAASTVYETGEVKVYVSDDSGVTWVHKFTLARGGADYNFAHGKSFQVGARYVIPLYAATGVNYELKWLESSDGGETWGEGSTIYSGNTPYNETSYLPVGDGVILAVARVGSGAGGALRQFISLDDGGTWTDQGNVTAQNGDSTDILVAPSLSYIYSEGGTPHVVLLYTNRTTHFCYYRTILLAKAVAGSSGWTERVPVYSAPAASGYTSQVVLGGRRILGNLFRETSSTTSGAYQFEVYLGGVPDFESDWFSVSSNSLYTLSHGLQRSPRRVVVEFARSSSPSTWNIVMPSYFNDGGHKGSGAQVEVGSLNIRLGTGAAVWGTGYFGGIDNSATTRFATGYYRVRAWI

CC(=O)N[C@H]1[C@H]([C@H](O)[C@H](O)CO)OC(C(=O)O)=C[C@@H]1O [DANA, 2,3-dehydro-2-deoxy-N-acetylneuraminic acid]
IC50 [1]: ~10000 µM

CC(=O)N[C@@H]1[C@@H](O)C[C@](Oc2ccc3c(C)cc(=O)oc3c2)(C(=O)O)O[C@H]1C(O)[C@H](O)CO (stereo partly drawn) [MNN, 2′-(4-methylumbelliferyl)-α-D-N-acetylneuraminic acid, reference compound]
Km [2]: ~1400 µM

CC(=O)N[C@H]1[C@H]([C@H](O)[C@H](O)CO)OC(O)(C(=O)O)C[C@@H]1O (stereo partly drawn) [NANA, N-acetylneuraminic acid, reference compound]
IC50 [2]: 600 µM | IC50 [1]: ~10000 µM | biofilm formation of the wild-type (D39) strain ([3]; 0.2% w/v NANA): decreased biofilm formation; also recorded: reduced biofilm formation

CCOC(=O)C1=C[C@@H](OC(CC)CC)[C@H](NC(C)=O)[C@@H](N)C1 [Oseltamivir, oseltamivir, reference compound]
IC50 ([2]; IC50 against NanA, hydrolyzed version of oseltamivir): 2000 µM | IC50 [4]: ~600 µM

COc1ccc([C@H]2[C@H](C(=O)c3ccc(Cl)cc3)C(=O)C(=O)N2c2cccc(C(=O)O)c2)cc1 [XX1]
inhibition of NanA, times more effective than DANA ([2]; Example 1): greater than 20 times | inhibition of NanA, times more effective than NANA ([2]; Example 1): > 80 times | inhibition of NanA, times more effective than oseltamivir ([2]; Example 1): > 200 times | inhibition of NanA, times more effective than DANA ([2]; Example 3): greater than 7 times | inhibition of NanA, times more effective than NANA ([2]; Example 3): > 20 times | inhibition of NanA, times more effective than oseltamivir ([2]; Example 3): > 70 times | IC50 ([2]; IC50 against NanA, Example 3, dose response fitted with logarithmic-based trend line): 28 µM | IC50 ([2]; IC50 for the S. pneumoniae neuraminidase, Example 1, dose response fitted with power-based trend line): 8.5 µM | IC50 [4]: 29 µM | growth of planktonic cells [5]: did not affect growth | biofilm formation ([3]; 100 μM, inhibitor present during epithelial cell exposure and in microtitre trays): significant reduction in biofilm formation | levels of biofilm formation ([3]; 400 μM, inhibitor present during epithelial cell exposure and in microtitre trays): comparative to the nanA strain

[Ca] [calcium]
increase in NanA activity ([2]; 1 mM calcium): 70%

[Mg] [magnesium]
increase in NanA activity ([2]; presence of magnesium ions): 50%
